Measured values: patent US10294202B2, “Pyrrolidinones as herbicides” (FMC Corporation, priority 2013, dated 2019)

Tests used:
[1] = tested on: wheat; experiment: Test A pre-/postemergence herbicide test; type: in vivo, Triticum aestivum; conditions: Postemergence
Method in brief: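 Visual 0–100 ratings (100 = complete control) made about 10 days after treatment, greenhouse-held plants compared with untreated controls. Treatments: postemergence sprays on one- to two-leaf plants (2–10 cm tall) and preemergence directed soil sprays after planting in loam–sand, chemicals formulated in non-phytotoxic solvent containing surfactant.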

[2] = tested on: blackgrass; experiment: Test C pre-/postemergence herbicide test; type: in vivo, Alopecurus myosuroides
Method in brief: (§1)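 Greenhouse plants scored visually against untreated controls 13–15 days after treatment, 0 = no effect, 100 = complete control. Test chemicals in a non-phytotoxic solvent with surfactant were applied either to soil (loam/sand) at planting or to foliage of 1- to 4-leaf plants, 2–18 cm tall.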

[3] = tested on: ryegrass, Italian; experiment: Test C pre-/postemergence herbicide test; type: in vivo, Lolium multiflorum
Method in brief: as §1

[4] = tested on: galium; experiment: Test C pre-/postemergence herbicide test; type: in vivo, Galium aparine; conditions: Preemergence
Method in brief: as §1

[5] = tested on: corn; experiment: Test C pre-/postemergence herbicide test; type: in vivo, Zea mays
Method in brief: as §1

[6] = tested on: crabgrass, large; experiment: Test C pre-/postemergence herbicide test; type: in vivo, Digitaria sanguinalis
Method in brief: as §1

[7] = tested on: johnsongrass; experiment: Test C pre-/postemergence herbicide test; type: in vivo, Sorghum halepense
Method in brief: as §1

[8] = tested on: ragweed; experiment: Test C pre-/postemergence herbicide test; type: in vivo, Ambrosia elatior
Method in brief: as §1

[9] = tested on: soybean; experiment: Test C pre-/postemergence herbicide test; type: in vivo, Glycine max
Method in brief: as §1

[10] = tested on: oilseed rape; experiment: Test C pre-/postemergence herbicide test; type: in vivo, Brassica napus
Method in brief: as §1

[11] = tested on: waterhemp; experiment: Test C pre-/postemergence herbicide test; type: in vivo, Amaranthus rudis
Method in brief: as §1

[12] = tested on: oat, wild; experiment: Test C pre-/postemergence herbicide test; type: in vivo, Avena fatua; conditions: Postemergence
Method in brief: as §1

[13] = Postemergence, 31 g ai/ha, scale 0 to 100 (0 no effect, 100 complete control)
[14] = Postemergence, 62 g ai/ha, scale 0 (no effect) to 100 (complete control)
[15] = Postemergence, 125 g ai/ha, scale 0 to 100 (0 no effect, 100 complete control)
[16] = Postemergence, 250 g ai/ha, scale 0 to 100 (0 no effect, 100 complete control)
[17] = Preemergence, 31 g ai/ha, scale 0 to 100, 0 is no effect and 100 is complete control
[18] = Preemergence, 62 g ai/ha, scale 0 to 100
[19] = Preemergence, 125 g ai/ha, scale 0 to 100 (0 no effect, 100 complete control)
[20] = 125 g ai/ha, scale 0 to 100 (0 no effect, 100 complete control)

## O=C1NCC(c2ccc(F)cc2)C1C(=O)Nc1ccc(F)c(F)c1F (racemic) [Compound 120]
[1]; 125 g ai/ha, 0 to 100 scale, 0 no effect, 100 complete control
  Plant response rating, Wheat: 20
[1]; 500 g ai/ha
  Wheat plant response rating (0 to 100 scale, 0 is no effect, 100 is complete control): 60
[2]; [13]
  Plant response rating, Blackgrass: 0
[2]; [14]
  Plant response rating, Blackgrass: 0
[2]; [15]
  Plant response rating, Blackgrass: 0
[2]; [16]
  Plant response rating, Blackgrass: 0
[2]; [17]
  Blackgrass plant response rating: 35
[2]; [18]
  Plant response rating, Blackgrass: 50
[2]; [19]
  Plant response rating, Blackgrass: 50
[2]; Preemergence, 250 g ai/ha
  Plant response rating (scale of 0 to 100), Blackgrass: 70
[3]; [13]
  Plant response rating, Ryegrass, Italian: 0
[3]; [14]
  Plant response rating, Ryegrass, Italian: 0
[3]; [15]
  Plant response rating, Ryegrass, Italian: 0
[3]; [16]
  Plant response rating, Ryegrass, Italian: 10
[3]; [17]
  Ryegrass, Italian plant response rating: 10
[3]; [18]
  Plant response rating, Ryegrass, Italian: 5
[3]; [19]
  Plant response rating, Ryegrass, Italian: 10
[3]; Preemergence, 250 g ai/ha
  Plant response rating (scale of 0 to 100), Ryegrass, Italian: 30
[4]; 31 g ai/ha, scale 0 to 100, 0 is no effect and 100 is complete control
  Galium plant response rating: 5
[4]; 62 g ai/ha, scale 0 to 100
  Plant response rating, Galium: 95
[4]; [20]
  Plant response rating, Galium: 50
[4]; 250 g ai/ha
  Plant response rating (scale of 0 to 100), Galium: 90
[5]; [13]
  Plant response rating, Corn: 0
[5]; [14]
  Plant response rating, Corn: 0
[5]; [15]
  Plant response rating, Corn: 0
[5]; [16]
  Plant response rating, Corn: 0
[5]; [17]
  Corn plant response rating: 0
[5]; [18]
  Plant response rating, Corn: 0
[5]; [19]
  Plant response rating, Corn: 20
[5]; Preemergence, 250 g ai/ha
  Plant response rating (scale of 0 to 100), Corn: 65
[6]; [13]
  Plant response rating, Crabgrass, Large: 55
[6]; [14]
  Plant response rating, Crabgrass, Large: 70
[6]; [15]
  Plant response rating, Crabgrass, Large: 70
[6]; [16]
  Plant response rating, Crabgrass, Large: 75
[6]; [17]
  Crabgrass, Large plant response rating: 98
[6]; [18]
  Plant response rating, Crabgrass, Large: 100
[6]; [19]
  Plant response rating, Crabgrass, Large: 100
[6]; Preemergence, 250 g ai/ha
  Plant response rating (scale of 0 to 100), Crabgrass, Large: 100
[7]; [13]
  Plant response rating, Johnsongrass: 0
[7]; [14]
  Plant response rating, Johnsongrass: 0
[7]; [15]
  Plant response rating, Johnsongrass: 0
[7]; [16]
  Plant response rating, Johnsongrass: 0
[7]; [17]
  Johnsongrass plant response rating: 0
[7]; [18]
  Plant response rating, Johnsongrass: 0
[7]; [19]
  Plant response rating, Johnsongrass: 25
[7]; Preemergence, 250 g ai/ha
  Plant response rating (scale of 0 to 100), Johnsongrass: 65
[8]; [13]
  Plant response rating, Ragweed: 20
[8]; [14]
  Plant response rating, Ragweed: 45
[8]; [15]
  Plant response rating, Ragweed: 40
[8]; [16]
  Plant response rating, Ragweed: 45
[8]; [17]
  Ragweed plant response rating: 0
[8]; [18]
  Plant response rating, Ragweed: 20
[8]; [19]
  Plant response rating, Ragweed: 55
[8]; Preemergence, 250 g ai/ha
  Plant response rating (scale of 0 to 100), Ragweed: 80
[9]; [13]
  Plant response rating, Soybean: 0
[9]; [14]
  Plant response rating, Soybean: 0
[9]; [15]
  Plant response rating, Soybean: 0
[9]; [16]
  Plant response rating, Soybean: 0
[9]; [17]
  Soybean plant response rating: 0
[9]; [18]
  Plant response rating, Soybean: 0
[9]; [19]
  Plant response rating, Soybean: 0
[9]; Preemergence, 250 g ai/ha
  Plant response rating (scale of 0 to 100), Soybean: 0
[10]; [13]
  Plant response rating, Oilseed Rape: 0
[10]; [14]
  Plant response rating, Oilseed Rape: 0
[10]; [15]
  Plant response rating, Oilseed Rape: 0
[10]; [16]
  Plant response rating, Oilseed Rape: 0
[10]; [17]
  Oilseed Rape plant response rating: 0
[10]; [18]
  Plant response rating, Oilseed Rape: 0
[10]; [19]
  Plant response rating, Oilseed Rape: 70
[10]; Preemergence, 250 g ai/ha
  Plant response rating (scale of 0 to 100), Oilseed Rape: 90
[11]; [13]
  Plant response rating, Waterhemp: 0
[11]; [14]
  Plant response rating, Waterhemp: 0
[11]; [15]
  Plant response rating, Waterhemp: 15
[11]; [16]
  Plant response rating, Waterhemp: 20
[11]; [17]
  Waterhemp plant response rating: 0
[11]; [18]
  Plant response rating, Waterhemp: 60
[11]; [19]
  Plant response rating, Waterhemp: 75
[11]; Preemergence, 250 g ai/ha
  Plant response rating (scale of 0 to 100), Waterhemp: 85
[12]; 31 g ai/ha, scale 0 to 100 (0 no effect, 100 complete control)
  Plant response rating, Oat, Wild: 0
[12]; 62 g ai/ha, scale 0 (no effect) to 100 (complete control)
  Plant response rating, Oat, Wild: 0
[12]; [20]
  Plant response rating, Oat, Wild: 0
[12]; 250 g ai/ha, scale 0 to 100 (0 no effect, 100 complete control)
  Plant response rating, Oat, Wild: 0
